Four compounds from PMC6541264, “Molecular mechanisms involved in drug-induced liver injury caused by urate-lowering Chinese herbs: A network pharmacology study and biology experiments” (PLoS ONE, 2019) can be followed below.

Type in all cases: cell-based, human
Series [1] is described as follows: MTT assay, cell viability of L-02 cells. Particulars: human, L-02 (L02) normal hepatic cells, L-02, MTT, 24 h, read-out: cells viabilityrate. As for the experimental part: (§1) The normal hepatic cell (L02) cell lines were obtained from the National Infrastructure of Cell Line Resources (Chinese Academy of Medical Sciences, Beijing, China), and maintained in Dulbecco’s modified Eagle’s medium (DMEM, 10-013-CVR) supplemented with 10% fetal bovine serum (FBS, Hyclone), 1% penicillin and streptomycin (PS, 100 IU/ml penicillin, 100 μg/ml streptomycin, Mediatech, 30-002-CI). All cells were incubated in a humidified atmosphere at 37°C with 5% CO2.
(§2) L-02 cells were trypsinized by 0.25% trypsin after reaching the confluence of 70–80% and plated in 96-well plates at the density of 1.6 × 10^3 […]. And L-02 cells were cultured for 24 hours in vitro before exposure to varying concentrations of different representative compounds with liver injury for further incubating in another 24 hours. Then, 20 μl of 0.25 mg/ml3-(4,5-dimethylthiazol-2-yl)-2,5-diphenyltetrazolium bromide (MTT)-tetrazolium salts (Sigma-Aldrich Corp., St. Louis, MO, USA) in PBS was added to each hole in 96-well plates. After 4 hours of incubation, the formazan crystals were dissolved by 150μl Dimethyl Sulphoxide (DMSO), and shocked to dissolve thoroughly, then the cell viability was measured by MTT method at 570 nm. All experiments were repeated in triplicate independently.
A general note: Tetrazolium dyes change colour on reduction, which living cells bring about.

For series [2], the system named is L-02 cells. In words: MTT assay, cell viability of L-02 cells. The procedure: as §1, §2
Series [3] has as its system L-02 cells. In words: Biochemical indicators of hepatotoxicity (ALT, AST, LDH, ALP activity) of L-02 cells, without and with p38 inhibitor SB203580. As for the experimental part: as §1
To determine how potential liver injury-compounds affected biochemical indicators of L-02 cells, we investigated the activities of AST, ALT, LDH and ALP in cell migration capacity under the different representative compounds conditions (representative compounds group), the inhibitor conditions (inhibitor group), and the negative control. For these experiments, three replicates were made for each concentration of the different representative compounds with liver injury, and each group was established three holes and cultured in 6 times repeatedly. […] Subsequently, the supernatant extraction of L02 cells was collected and centrifuged to detect the activities of AST, ALT, LDH, and ALP by chromatometry method.
To further and fully elucidating the mechanism of the liver injury caused by the representative compounds from urate-lowering Chinese herbs, we chose the p38α inhibitor, SB203580 to verify our findings. […] The specific composition information was shown in S2 Table. […] The Specific specific composition information is was shown in S4 Table.

Series [4] deals with p38α. In words: Western blot, expression of p-p38α/p38α in L-02 cells, without and with inhibitor SB203580. Particulars: for ratios of p-p38α/p38α expression compared with the blank groups, in words: L-02, 10μmol/L diosgein, 2000μmol/L baicalin, 60μmol/L terandrine, 6μmol/L evodiamine. The source says: After the examination of biochemical indicators for hepatotoxicity in the cell, the expression of crucial liver injury protein in L02 cell lines among different groups was compared by Western blot analysis. Briefly, the proteins from different groups were harvested and lysed using lysis buffer (Sigma-Aldrich) containing a proteinase inhibitor cocktail (Sigma-Aldrich), the equal amounts of protein were separated by electrophoresis on a pre-cast 10% SDS-polyacrylamide gel (Bio-Rad, Hercules, CA) and transferred to polyvinylidene difluoride membranes (Millipore, Bedford, MA). Next, the membrane was blocked in TBST-T containing 5% skim milk for 2 h at room temperature and probed with anti-beta-catenin, and incubated overnight with the indicated primary antibody, followed by incubation with the secondary antibodies at room temperature for another 2 h. Finally, all the immune blots were visualized by enhanced chemiluminescence (Pierce Biotechnology, Inc., Rockford, IL, USA) and western blots were performed at least three times.
According to the results of network pharmacology, we examined the expression levels of p38α. […] The Specific specific composition information is was shown in S3 Table. […] However, the mechanism of saikosaponin D causing liver injury still remained unclear.
To further and fully elucidating the mechanism of the liver injury caused by the representative compounds from urate-lowering Chinese herbs, we chose the p38α inhibitor, SB203580 to verify our findings. Seemingly, the ALT, AST, ALP, and LDH activities of each group decreased to varying degrees under the influence of inhibitor. The specific composition information was shown in S2 Table. […] The Specific specific composition information is was shown in S4 Table.

Setting [5] is: S2 Table, L-02, 5μmol/L+inhibitor (SB203580).
The mark [6] stands for this setting: S2 Table, L-02, 5μmol/L, no inhibitor.
Where [7] appears, read: S2 Table, L-02, 10μmol/L+inhibitor (SB203580).
[8] abbreviates: S2 Table, L-02, 10μmol/L, no inhibitor.
The mark [9] stands for this setting: Table 5, L-02 supernatant, 24 h, 5μmol/L.
[10] abbreviates: Table 5, L-02 supernatant, 24 h, 10μmol/L.
Where [11] appears, read: Table 5, L-02 supernatant, 24 h, 15μmol/L.
Setting [12] is: S2 Table, L-02, 1000μmol/L+inhibitor (SB203580).
Where [13] appears, read: S2 Table, L-02, 1000μmol/L, no inhibitor.
Where [14] appears, read: S2 Table, L-02, 2000μmol/L+inhibitor (SB203580).
The mark [15] stands for this setting: S2 Table, L-02, 2000μmol/L, no inhibitor.
Setting [16] is: Table 5, L-02 supernatant, 24 h, 1000μmol/L.
Where [17] appears, read: Table 5, L-02 supernatant, 24 h, 2000μmol/L.

Turning to `O=c1c2ccccc2nc2n1CCc1c-2[nH]c2ccccc12` [Rutaecarpine], in series [1] (5 μmol/L), the viability at 24 h, 5 μmol/L came out at 92.7 ± 3.74%. Also, in series [1] (10 μmol/L), the viability at 24 h, 10 μmol/L amounted to 81.3 ± 6.29%. In series [1] (15 μmol/L), the viability at 24 h, 15 μmol/L worked out at 80.5 ± 3.9%. Moreover, the “cell viability of L-02 (MTT), in words” value in series [2] (dose of 5μmol/L) is recorded as “good potency inhibitor against the cell viability”. In addition, the ALP in series [3] (setting [5]) came to 1.13± 0.12 King's unit /100ml; in series [3] (setting [6]), 1.63± 0.03 King's unit /100ml; in series [3] (setting [7]) it was 1.39± 0.28 King's unit /100ml; in series [3] (setting [8]), 1.07± 0.14 King's unit /100ml; in series [3] (setting [9]), 5.77±0.54 King's unit /100ml; in series [3] (setting [10]) it was 5.67±0.12 King's unit /100ml. This compound came in with an ALP in series [3] (setting [11]) of 5.54±0.57 King's unit /100ml. Besides, the ALT in series [3] (setting [5]) was 5.01± 0.13 U/L; in series [3] (setting [6]), 6.00± 0.43 U/L; in series [3] (setting [7]) it was 5.63± 0.09 U/L; in series [3] (setting [8]), 5.67± 0.12 U/L; in series [3] (setting [9]), 9.90±0.99 U/L; in series [3] (setting [10]), 8.81±1.85 U/L. Besides, the ALT in series [3] (setting [11]) was 9.33±1.85 U/L. Further, the AST in series [3] (setting [5]) turned out to be 9.25± 1.09 U/L; in series [3] (setting [6]) it was 10.33± 0.74 U/L; in series [3] (setting [7]) it was 10.52± 0.97 U/L; in series [3] (setting [8]), 9.81± 0.74 U/L; in series [3] (setting [9]) it was 1075.18±91.40 U/L; in series [3] (setting [10]), 1127.68±56.72 U/L. Moreover, the AST in series [3] (setting [11]) came out at 1000.00±61.27 U/L. For the same compound, the LDH in series [3] (setting [5]) is reported as 1193.32± 3.90 U/L; in series [3] (setting [6]), 1105.81± 85.95 U/L; in series [3] (setting [7]) it was 1217.18± 41.25 U/L; in series [3] (setting [8]) it was 1155.13± 35.72 U/L; in series [3] (setting [9]), 1.62±0.04 U/L; in series [3] (setting [10]), 1.54±0.36 U/L. The compound further displayed an LDH in series [3] (setting [11]) of 1.71±0.16 U/L.

As to `O=C(O)[C@H]1O[C@@H](Oc2cc3oc(-c4ccccc4)cc(=O)c3c(O)c2O)[C@H](O)[C@@H](O)[C@@H]1O` [Baicalin], in series [1] (1000 μmol/L), the viability at 24 h, 1000 μmol/L amounted to 154 ± 21.1%. The viability at 24 h, 2000 μmol/L in series [1] (2000 μmol/L) amounted to 98.6 ± 16.5%. The “effect on L-02 (MTT), in words” value in series [2] (dose of 2000μmol/L) is given as “trend of proliferative effects”. The ALP in series [3] (setting [12]) came to 0.70± 0.05 King's unit /100ml; in series [3] (setting [13]), 0.86± 0.06 King's unit /100ml; in series [3] (setting [14]), 0.85± 0.06 King's unit /100ml; in series [3] (setting [15]), 0.92± 0.13 King's unit /100ml; in series [3] (setting [16]), 2.03±0.44 King's unit /100ml; in series [3] (setting [17]), 1.94±0.21 King's unit /100ml. Further, the ALT in series [3] (setting [12]) was 1.88± 0.20 U/L; in series [3] (setting [13]), 2.24± 0.30 U/L; in series [3] (setting [14]), 2.27± 0.32 U/L; in series [3] (setting [15]), 2.01± 0.20 U/L; in series [3] (setting [16]), 4.45±1.09 U/L; in series [3] (setting [17]), 4.48±0.13 U/L. Moreover, the AST stood at 4.12± 0.26 U/L in series [3] (setting [12]); 4.45± 1.09 U/L in series [3] (setting [13]); 4.38± 0.84 U/L in series [3] (setting [14]); 4.48± 0.13 U/L in series [3] (setting [15]); 690.76±33.24 U/L in series [3] (setting [16]); 824.64±39.22 U/L in series [3] (setting [17]). Further, the LDH in series [3] (setting [12]) is recorded as 778.83± 14.65 U/L; in series [3] (setting [13]) it was 699.84± 33.81 U/L; in series [3] (setting [14]), 981.04± 3.87 U/L; in series [3] (setting [15]) it was 840.44± 32.45 U/L; in series [3] (setting [16]), 0.81±0.10 U/L; in series [3] (setting [17]) it was 0.84±0.18 U/L. For the same compound, in series [4], the “ratios of p-p38α/p38α expression compared with the blank groups, in words” value is reported as “increased”. Moreover, the p-p38α/p38α in series [4] (S3 Table, L-02, 24 hours of incubation, 1000μmol/L) turned out to be 1.24±0.29; in series [4] (S3 Table, L-02, 24 hours of incubation, 2000μmol/L), 2.06±0.66; in series [4] (S4 Table, L-02, 24 hours, 1000μmol/L+inhibitor (SB203580)), 0.76±0.15; in series [4] (S4 Table, L-02, 24 hours, 1000μmol/L, no inhibitor) it was 1.25±0.24; in series [4] (S4 Table, L-02, 24 hours, 2000μmol/L+inhibitor (SB203580)) it was 0.26±0.03; in series [4] (S4 Table, L-02, 24 hours, 2000μmol/L, no inhibitor) it was 1.08±0.6.

On to Evodiamine, for which the “ratios of p-p38α/p38α expression compared with the blank groups, in words” value in series [4] was “increased”. For the same compound, the p-p38α/p38α in series [4] (S3 Table, L-02, 24 hours of incubation, 5μmol/L) stood at 1.13±0.33; in series [4] (S3 Table, L-02, 24 hours of incubation, 6μmol/L), 1.39±0.34; in series [4] (S3 Table, L-02, 24 hours of incubation, 7μmol/L) it was 1.03±0.48; in series [4] (S4 Table, L-02, 24 hours, 5μmol/L+inhibitor (SB203580)), 0.82±0.02; in series [4] (S4 Table, L-02, 24 hours, 5μmol/L, no inhibitor), 1.74±0.42; in series [4] (S4 Table, L-02, 24 hours, 10μmol/L+inhibitor (SB203580)), 0.47±0.03. Moreover, the p-p38α/p38α worked out at 1.45±0.29 in series [4] (S4 Table, L-02, 24 hours, 10μmol/L, no inhibitor); 0.91±0.22 in series [4] (S4 Table, L-02, 24 hours, 15μmol/L+inhibitor (SB203580)); 1.39±0.77 in series [4] (S4 Table, L-02, 24 hours, 15μmol/L, no inhibitor).

Consider `C[S+]([O-])c1ccc(-c2nc(-c3ccncc3)c(-c3ccc(F)cc3)[nH]2)cc1` (centres unmarked) [SB203580, reference compound], for which the “effect on component-induced cell damage of L-02 cells, in words” value in series [3] (SB203580 at the dose of 20μmol/L added to components) is recorded as “attenuate the component-induced cell damage”.
